Patent US20040229848A1, “Glutaminyl based DP IV-inhibitors” (priority 2003, published 2004)
Where two headings read alike, the source gives them in different places.

Legend:
human QC = human QC (Homo sapiens, UniProt Q16769); test: Inhibition of the human QC (glutaminyl cyclase) catalyzed reaction, Ki determination
Method: Excitation/emission wavelengths were 320/410 nm. The assay reactions were initiated by addition of glutaminyl cyclase.
Reactions were carried out at 30° C. utilizing the NOVOStar reader for microplates (BMG labtechnologies). […] Excitation/emission wavelengths were 380/460 nm. The assay reactions were initiated by addition of glutaminyl cyclase. […] The kinetic data were evaluated using GraFit software.
The initial velocities were evaluated and the enzymatic activity was determined from a standard curve of ammonia under assay conditions. All samples were measured at 30° C., using either the [sequence]luor Plus or the Sunrise (both from TECAN) reader for microplates. Kinetic data was evaluated using GraFit software.
For inhibitor testing, the sample composition was the same as described above, except of the putative inhibitory compound added. […] For detailed investigations of the inhibition and determination of Ki-values, influence of the inhibitor on the auxiliary enzymes was investigated first.

DPIV = DPIV (Homo sapiens, UniProt P27487); test: DPIV activity assay, hydrolysis of H-Gly-Pro-pNA; conditions: 0.4 mM H-Gly-Pro-pNA, 0.65 mU DPIV, 0.04 M Hepes pH 7.6, 30° C.; 2.6*10^−5 M glutaminyl thiazolidine
Chain of DPIV (P27487 whole entry): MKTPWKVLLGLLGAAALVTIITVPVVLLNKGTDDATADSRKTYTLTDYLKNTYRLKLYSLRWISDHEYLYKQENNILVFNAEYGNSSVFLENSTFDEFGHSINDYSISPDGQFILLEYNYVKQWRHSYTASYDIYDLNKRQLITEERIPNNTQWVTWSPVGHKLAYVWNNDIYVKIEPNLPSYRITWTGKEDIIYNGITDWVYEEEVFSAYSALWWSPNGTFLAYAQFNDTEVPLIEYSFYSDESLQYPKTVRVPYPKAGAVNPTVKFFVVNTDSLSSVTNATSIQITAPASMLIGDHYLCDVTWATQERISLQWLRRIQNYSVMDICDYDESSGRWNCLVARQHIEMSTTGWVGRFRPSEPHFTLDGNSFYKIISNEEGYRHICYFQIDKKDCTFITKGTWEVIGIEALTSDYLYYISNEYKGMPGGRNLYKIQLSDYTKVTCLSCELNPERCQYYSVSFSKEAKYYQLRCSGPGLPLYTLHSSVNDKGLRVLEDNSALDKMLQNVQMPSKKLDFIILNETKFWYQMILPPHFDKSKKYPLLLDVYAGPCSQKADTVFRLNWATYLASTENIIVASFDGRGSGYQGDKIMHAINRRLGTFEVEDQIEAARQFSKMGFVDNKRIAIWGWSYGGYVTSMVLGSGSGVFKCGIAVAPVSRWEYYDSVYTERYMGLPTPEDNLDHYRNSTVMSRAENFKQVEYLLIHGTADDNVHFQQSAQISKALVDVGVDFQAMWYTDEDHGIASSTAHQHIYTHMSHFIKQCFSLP
Method: (§1) All assays were performed at 30° C. using the Sunrise reader for microplates (TECAN). […] Additionally, samples contained either
(§2) a) 2.6*10^−5 M glutaminyl thiazolidine (open circles), or
(§3) Otherways, reactions were started by addition of a mixture of H-Gly-Pro-pNA and glutaminyl thiazolidine. Reactions were followed by monitoring the decrease in absorbance at 400 nm.

glutaminyl cyclase (QC) = glutaminyl cyclase (QC) (Homo sapiens, UniProt Q16769)
Chain of glutaminyl cyclase (QC) (Q16769 29-361): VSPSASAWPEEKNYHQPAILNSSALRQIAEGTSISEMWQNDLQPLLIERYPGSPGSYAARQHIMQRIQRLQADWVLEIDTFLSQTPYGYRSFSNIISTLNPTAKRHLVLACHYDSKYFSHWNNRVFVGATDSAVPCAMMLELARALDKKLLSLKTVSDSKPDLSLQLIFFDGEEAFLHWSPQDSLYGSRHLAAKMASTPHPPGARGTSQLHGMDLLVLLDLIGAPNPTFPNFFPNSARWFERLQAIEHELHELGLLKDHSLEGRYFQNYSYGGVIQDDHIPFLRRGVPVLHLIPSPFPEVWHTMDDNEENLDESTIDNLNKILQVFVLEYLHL
Method: as §1, §2, §3

[1] = read-out: Ki-value, human QC catalyzed reaction, 30° C. in 0.05 M Tris-HCl pH 8.0, containing 5 mM EDTA
[2] = read-out: Ki value, QC inhibition by L-histamine and its two biological metabolites (Table 4)
[3] = human QC catalyzed reaction, 30° C. in 0.05 M Tris-HCl pH 8.0, containing 5 mM EDTA

Chain of human QC (Q16769 29-361): as above

S=C(NCCn1ccnc1)Nc1ccc(Cl)cc1 [N-(4-chlorophenyl)-N′-[2-(1H-imidazol-1-yl)ethyl]thiourea]
Ki (human QC): 1.65 ± 0.07 µM

Cn1cnc(CCN)c1 [1-methyl-4-(β-aminoethyl)-imidazole]
Ki value (mM) (human QC; QC inhibition by L-histamine and its two biological metabolites (Table 4)): n.i

O=C1CNC(=S)N1CCCn1ccnc1 [3-[3-(1H-imidazol-1-yl)propyl]-2-thioxoimidazolidin-4-one]
Ki (human QC): 0.41 ± 0.01 µM

C[Si](C)(C)n1ccnc1 [N-(trimethylsilyl)-imidazole]
Ki (human QC; [1]): 167 ± 7 µM

O=C1CCC(C(=O)N2CCSC2)N1 (centres unmarked) [pyro-glutaminyl-thiazolidine]
inhibition of DPIV (hydrolysis of H-Gly-Pro-pNA) (DPIV): not active

c1ccn2cncc2c1 [Imidazo[1.5a]pyridine]
Ki (human QC): 35.6 ± 0.5 µM

NC(=O)CC[C@H](N)C(=O)N1CCSC1 [glutaminyl thiazolidine]
degradation by glutaminyl cyclase (glutaminyl cyclase (QC)): degraded to the pyro-glutaminyl-thiazolidine
half-life in the presence of QC (glutaminyl cyclase (QC)): reduced
inhibition of DPIV (hydrolysis of H-Gly-Pro-pNA) (DPIV): competitive inhibition

O=C(O)c1ccc(OCCn2ccnc2)cc1 [4-[2-(1H-imidazol-1-yl)-ethoxy]benzoic acid]
Ki (human QC): 3.4 ± 0.1 µM

O=C(C(=O)n1ccnc1)n1ccnc1 [oxalic acid dilmidazolidide]
Ki (human QC): 78 ± 2 µM

NCCc1c[nH]cn1 [L-histamine]
Ki (human QC; [2]): 850 ± 40 µM
Ki (human QC; [1]): 850 ± 40 µM

C=Cn1ccnc1 [1-vinylimidazole]
Ki (human QC; [1]): 49 ± 2 µM

Cn1ccnc1 [1-methylimidazole]
Ki (human QC): 30 ± 1 µM

c1ccc2[nH]cnc2c1 [benzimidazole]
reaction rate of H-Gly-Pro-pNA hydrolysis after addition of the QC inhibitor (glutaminyl cyclase (QC); case (c): 2.6*10^−5 M glutaminyl thiazolidine, 54 mU QC and 0.4 mM inhibitor): the reaction rate goes down as low as in case (a)

NC(=O)[C@@H](N)Cc1c[nH]cn1 [L-histidinamide]
Ki (human QC; [1]): 560 ± 40 µM

COC(=O)c1c[nH]cn1 [imidazole-4-carbonic acid methylester]
Ki (human QC; [1]): 14500 ± 600 µM

Nc1nc2ccccc2[nH]1 [2-aminobenzimidazole]
Ki (human QC; [1]): 1800 ± 100 µM

c1ccc(-c2nc[nH]c2-c2ccccc2)cc1 [4,5-diphenyl-imidazole]
Ki-value (mM) (human QC; [3]): no inhibition

O=Cc1c[nH]cn1 [4-imidazole-carboxaldehyde]
Ki (human QC; [1]): 7600 ± 700 µM

CCCC1C(=O)OCC1Cc1cncn1C (centres unmarked) [4-[(1-methyl-1H-imidazol-5-yl)methyl]-3-propyldihydrofuran-2-(3H)-one]
Ki (human QC): 6.7 ± 0.3 µM

Cc1c(C(=O)CCn2ccnc2)sc2ccccc12 [3-(1H-imidazol-1-yl)-1-(3-methylbenzo[b]thiophene-2-yl)propan-1-one]
Ki (human QC): 2.5 ± 0.1 µM

Cc1nc2ccccc2[nH]1 [2-methyl-benzylimidazole]
Ki (human QC; [1]): 165 ± 4 µM

Cn1cncc1CCN [3-methyl-4-(β-aminoethyl)-imidazole]
Ki (human QC; [2]): 120 ± 4 µM

CCc1nc(C)c[nH]1 [2-ethyl-4-methyl-imidazole]
Ki (human QC; [1]): 580 ± 40 µM

N[C@H](CO)Cc1c[nH]cn1 [L-histidinol]
Ki (human QC; [1]): 1530 ± 120 µM

c1ccc(-n2ccnc2)cc1 [1-phenylimidazole]
Ki-value (mM) (human QC; [3]): no inhibition

COC(=O)[C@@H](NC(=O)[C@@H](N)CCC(=O)Nn1ccnc1)C(C)C [Methyl (2S)-2-{[(28)-2-amino-5-(1H-imidazol-1-ylamino)-5-oxopentanoyl]amino}-3-methylbutanoate]
Ki (human QC): 164 ± 4 µM

NCCCn1ccnc1 [1-(3-aminopropyl)-imidazole]
Ki (human QC; [1]): 410 ± 10 µM

Cc1nc[nH]c1CO [5-hydroxymethyl-4-methyl-imidazole]
Ki (human QC; [1]): 129 ± 5 µM

O=C(c1ccccc1)n1ccnc1 [N-benzoylimidazole]
Ki (human QC; [1]): 174 ± 7 µM

O=C(Cn1ccnc1)c1ccccc1 [1-(2-oxo-2-phenyl-ethyl)-imidazole]
Ki (human QC; [1]): 184 ± 5 µM

N#Cc1nc[nH]c1C#N [4,5-dicyanoimidazole]
Ki-value (mM) (human QC; [3]): no inhibition

CC(=O)n1ccnc1 [N-acetylimidazole]
Ki (human QC; [1]): 107 ± 3 µM

O=C(Nc1ccccc1C(=O)NCCCn1ccnc1)c1ccc([N+](=O)[O-])o1 [5-nitro-2-[2-([{3-(1H-imidazol-1-yl-)propyl}amino]carbonyl)phenyl]furamide]
Ki (human QC): 6.6 ± 0.4 µM

COC(=O)[C@H](C)NC(=O)C1CCC(Cn2ccnc2)N1 (some centres unmarked) [2-[(5-imidazol-1-ylmethyl-pyrrolidine-2-carbonyl)-amino]-propionic acid methyl ester]
Ki (human QC): 32.2 ± 0.7 µM

NC(=O)c1[nH]cnc1N [4-amino-imidazole-5-carbonic acid amide]
Ki (human QC; [1]): 15500 ± 500 µM

Clc1nc2ccccc2[nH]1 [2-chioro-1H-benzimidazole]
Ki-value (mM) (human QC; [3]): no inhibition

N[C@@H](Cc1c[nH]cn1)C(=O)O [L-histidine]
Ki (human QC; [1]): 4400 ± 200 µM

O=S(=O)(n1ccnc1)n1ccnc1 [1,1′-sulfonyldiimidazole]
Ki-value (mM) (human QC; [3]): no inhibition
